Measurements: patent publication US10556865B2, “Synergistic herbicidal composition containing certain pyridine or pyrimidine carboxylic acids and certain cereal and rice herbicides” (Dow AgroSciences, LLC, priority 2007, dated 2020)
“And” between values parts separate entries of the source, which are not always exact repeats. Equal entries are not always repeated.

Key:
Format in all cases: in vivo
[1] = system: Russian thistle (Salsola iberica L; SASKR); assay: Postemergence herbicidal activity of mixtures in cereal crops (greenhouse, visual injury)
Method: (§1) Seeds of the desired test plant species were planted in Sun Gro MetroMix® 306 planting mixture, which typically has a pH of 6.0 to 6.8 and an organic matter content of about 30 percent, in plastic pots with a surface area of 103.2 square centimeters (cm^2). When required to ensure good germination and healthy plants, a fungicide treatment and/or other chemical or physical treatment was applied. The plants were grown for 7-36 days in a greenhouse with an approximate 14 hour photoperiod which was maintained at about 18° C. during the day and 17° C. during the night. Nutrients and water were added on a regular basis and supplemental lighting was provided with overhead metal halide 1000-Watt lamps as necessary. The plants were employed for testing when they reached the second or third true leaf stage.
(§2) Treatments consisted of compound (as listed in Tables 1 through 64) and a second cereal herbicide alone and in combination. Weighed amounts of esters (methyl) or salts (TEA [triethylammonium], K [potassium]) of 4-amino-3-chloro -6-(4-chloro-2-fluoro-3-methoxyphenyl)pyridine-2-carboxylic acid (Compound A) or of 6-amino-5-chloro-2-(4-chloro-2-fluoro-3-methoxyphenyl)pyrimidine-4-carboxylic acid (Compound B), were placed in 25 milliliter (mL) glass vials and dissolved in a volume of 97:3 v/v acetone/DMSO to obtain 4.5 milligrams (mg) active ingredient (ai)/mL stock solutions. […] The concentrated stock solutions were diluted to 1.5 mg ai/mL with the addition of 2 volumes of an aqueous mixture containing acetone, water, isopropyl alcohol, DMSO, Agri-dex crop oil concentrate, and Triton® X-77 surfactant in a 64.7:26.0:6.7:2.0:0.7:0.01 v/v ratio. A dilution solution was prepared by mixing 1 volume of 97:3 v/v acetone/DMSO and 2 volumes of an aqueous mixture containing acetone, water, isopropyl alcohol, DMSO, Agri-dex crop oil concentrate, and Triton® X-77 surfactant in a 64.7:26.0:6.7:2.0:0.7:0.01 v/v ratio. Compound requirements are based upon a 12 mL application volume at a rate of 187 liters per hectare (L/ha). Spray solutions of the second cereal herbicide and experimental compound mixtures were prepared by adding the stock solutions to the appropriate amount of dilution solution to form 12 mL spray solution with active ingredients in two- and three-way combinations. Formulated compounds were applied to the plant material with an overhead Mandel track sprayer equipped with 8002E nozzles calibrated to deliver 187 L/ha over an application area of 0.503 square meters (m^2) at a spray height of 18 inches (43 cm) above average plant canopy. Control plants were sprayed in the same manner with the solvent blank.
(§3) The treated plants and control plants were placed in a greenhouse as described above and watered by sub-irrigation to prevent wash-off of the test compounds. After 20-22 days, the condition of the test plants as compared with that of the control plants was determined visually and scored on a scale of 0 to 100 percent where 0 corresponds to no injury and 100 corresponds to complete kill.
(§4) Colby's equation was used to determine the herbicidal effects expected from the mixtures (Colby, S. R. 1967. Calculation of the synergistic and antagonistic response of herbicide combinations. Weeds 15:20-22.).
(§5) The following equation was used to calculate the expected activity of mixtures containing two active ingredients, A and B: Expected=A+B−(A×B/100)

[2] = system: kochia (Kochia scoparia L; KCHSC); assay: as above
Method: as §1, §2, §3, §4, §5

[3] = system: bird's-eye speedwell (Veronica persica L; VERPE); assay: as above
Method: (§6) The plants were grown for 7-36 days in a greenhouse with an approximate 14 hour photoperiod which was maintained at about 18° C. during the day and 17° C. during the night. Nutrients and water were added on a regular basis and supplemental lighting was provided with overhead metal halide 1000-Watt lamps as necessary. The plants were employed for testing when they reached the second or third true leaf stage.
(§7) Treatments consisted of compound (as listed in Tables 1 through 64) and a second cereal herbicide alone and in combination. […] Control plants were sprayed in the same manner with the solvent blank.
as §3, §5

[4] = system: wild pansy (Viola tricolor L; VIOTR); assay: as above
Method: as §6, §7, §3, §5

[5] = system: scented mayweed (Matricaria chamomila L; MATCH); assay: as above
Method: as §6, §7, §3, §5

[6] = system: Ischaemum rugosum SALISB. (ISCRU); assay: Postemergence herbicidal mixtures for weed control in direct seeded rice (greenhouse, visual % injury)
[7] = system: black mustard (Brassica nigra L; BRSNI); assay: Postemergence herbicidal activity of mixtures in cereal crops (greenhouse, visual injury)
Method: as §1, §2, §3, §4, §5

[8] = system: cut-leaf geranium (Geranium dissectum L; GERDI); assay: as above
Method: as §1, §2, §3, §4, §5

[9] = system: rigid ryegrass (Lolium rigidum L; LOLRI); assay: as above
Method: as §1, §2, §3, §4, §5

[10] = system: Canada thistle (Cirsium arvense L; CIRAR); assay: as above
Method: as §6, §7, §3, §5

[11] = system: blackgrass (Alopecurus myosuroides L; ALOMY); assay: Postemergence herbicidal activity of mixtures in cereal crops (greenhouse, visual injury 0-100 percent after 20-22 days); conditions: 8.75 g/ha, Table 19
Method: as §1, with “When required to ensure good germination and healthy plants, a fungicide treatment and/or other chemical or physical treatment was applied.” left out
Treatments consisted of compound (as listed in Tables 1 through 64) and a second cereal herbicide alone and in combination. […] The concentrated stock solutions were diluted to 1.5 mg ai/mL with the addition of 2 volumes of an aqueous mixture containing acetone, water, isopropyl alcohol, DMSO, Agri-dex crop oil concentrate, and Triton® X-77 surfactant in a 64.7:26.0:6.7:2.0:0.7:0.01 v/v ratio. A dilution solution was prepared by mixing 1 volume of 97:3 v/v acetone/DMSO and 2 volumes of an aqueous mixture containing acetone, water, isopropyl alcohol, DMSO, Agri-dex crop oil concentrate, and Triton® X-77 surfactant in a 64.7:26.0:6.7:2.0:0.7:0.01 v/v ratio. Compound requirements are based upon a 12 mL application volume at a rate of 187 liters per hectare (L/ha). […] Formulated compounds were applied to the plant material with an overhead Mandel track sprayer equipped with 8002E nozzles calibrated to deliver 187 L/ha over an application area of 0.503 square meters (m^2) at a spray height of 18 inches […] above average plant canopy. Control plants were sprayed in the same manner with the solvent blank.
as §3, §4, §5

[12] = system: wild buckwheat (Polygonum convolvulus L; POLCO); assay: Postemergence herbicidal activity of mixtures in cereal crops (greenhouse, visual injury)
Method: as §1, §2, §3, §4, §5

[13] = system: chickweed (Stellaria media L; STEME); assay: as above
Method: as §1, §2, §3, §4, §5

## COc1c(Cl)ccc(-c2cc(N)c(Cl)c(C(=O)[O-])n2)c1F.[K+] [Compound A K-salt]
[1]; 8.75 g/ha alone
  SASKR Ob: 63%
[1]; 17.5 g/ha alone
  SASKR Ob: 67%
[1]; 35 g/ha alone
  SASKR Ob: 73%
[2]; 8.75 g/ha alone
  KCHSC Ob: 67%
[2]; 17.5 g/ha alone
  KCHSC Ob: 77%
[2]; 35 g/ha alone
  KCHSC Ob: 90%
[2]; alone 8.75 g/ha
  KCHSC Ob: 67%
[2]; alone 17.5 g/ha
  KCHSC Ob: 77%
[2]; alone 35 g/ha
  KCHSC Ob: 90%
[3]; 8.75 g/ha alone
  VERPE Ob: 73%
[3]; 17.5 g/ha alone
  VERPE Ob: 78%
[3]; 35 g/ha alone
  VERPE Ob: 83%
[3]; alone 8.75 g/ha
  VERPE Ob: 73%
[3]; alone 17.5 g/ha
  VERPE Ob: 78%
[3]; alone 35 g/ha
  VERPE Ob: 83%
[4]; 8.75 g/ha alone
  VIOTR Ob: 20%
[4]; 17.5 g/ha alone
  VIOTR Ob: 48%
[4]; 35 g/ha alone
  VIOTR Ob: 42%
[5]; 8.75 g/ha alone
  MATCH Ob: 50%
[5]; 17.5 g/ha alone
  MATCH Ob: 62%
[5]; 35 g/ha alone
  MATCH Ob: 57%
[5]; alone 8.75 g/ha
  MATCH Ob: 50%
[5]; alone 17.5 g/ha
  MATCH Ob: 62%
[5]; alone 35 g/ha
  MATCH Ob: 57%

## COCc1cnc(C2=NC(C)(C(C)C)C(=O)N2)c(C(=O)O)c1 (stereo not shown) [Imazamox]
[6]; alone 22.4 g/ha
  % Injury ISCRU Ob: 50%

## CC(C)c1ccc(NC(=O)N(C)C)cc1 [Isoproturon]
[1]; 300 g/ha alone
  SASKR Ob: 33%
[7]; Brassica, post-emergence, 300 g/ha alone, read-out: BRSNI Ob
  pest or weed control at 300 g/ha: 40%
[2]; 300 g/ha alone
  KCHSC Ob: 50%
[4]; Viola tricolor, post-emergence, 300 g/ha alone, read-out: VIOTR Ob
  pest or weed control at 300 g/ha: 0%

## Nc1cc(Cl)nc(C(=O)O)c1Cl [Aminopyralid]
[1]; 2.5 g/ha alone
  SASKR Ob: 18%
[8]; 2.5 g/ha alone
  GERDI Ob: 0%
[7]; 2.5 g/ha alone
  BRSNI Ob: 0%
[2]; 2.5 g/ha alone
  KCHSC Ob: 0%
[3]; 2.5 g/ha alone
  VERPE Ob: 0%
[4]; 2.5 g/ha alone
  VIOTR Ob: 27%
[5]; 2.5 g/ha alone
  MATCH Ob: 10% and 8%

## CCS(=O)(=O)c1nc2ccccn2c1S(=O)(=O)NC(=O)Nc1nc(OC)cc(OC)n1 [Sulfosulfuron, N-[[(4,6-dimethoxy-2-pyrimidinyl)amino]carbonyl]-2-(ethylsulfonyl)imidazo[1,2-a]pyridine-3-sulfonamide, reference compound]
[9]; 8.75 g/ha, Table 19
  LOLRI: 10%
[3]; Veronica persica, post-emergence, 8.75 g/ha, read-out: VERPE Ob
  pest or weed control at 8.75 g/ha: 30%
[10]; 8.75 g/ha
  CIRAR Ob: 10%
[11]
  ALOMY Ob: 85%

## COc1cc(OC)nc(NC(=O)NS(=O)(=O)c2nc(C(F)(F)F)ccc2C(=O)O)n1 [Flupyrsulfuron, 2-[[[[(4,6-dimethoxy-2-pyrimidinyl)amino]carbonyl]amino]sulfonyl]-6-(trifluoromethyl)-3-pyridinecarboxylic acid, reference compound]
[9]; 5 g/ha, Table 12
  LOLRI Ob: 0%
[3]; 5 g/ha
  VERPE Ob: 0%
[3]; Veronica persica, post-emergence, read-out: VERPE Ob
  pest or weed control at 5 g/ha: 0%
[4]; Viola tricolor, post-emergence, read-out: VIOTR Ob
  pest or weed control at 5 g/ha: 0%
[10]; 5 g/ha
  CIRAR Ob: 20%

## CCc1cnc(C2=NC(C)(C(C)C)C(=O)N2)c(C(=O)O)c1 (stereo not shown) [Imazethapyr]
[6]; alone 35 g/ha
  % Injury ISCRU Ob: 20%

## CCC(Oc1ccc(F)c(C(F)(F)F)c1)C(=O)NCc1ccccc1 (stereo not shown) [Beflubutamid]
[8]; 35 g/ha
  GERDI Ob: 0%
[8]; 70 g/ha
  GERDI Ob: 0%
[7]; 35 g/ha
  BRSNI Ob: 30%
[7]; 70 g/ha
  BRSNI Ob: 30%
[12]; 35 g/ha
  POLCO Ob: 10%
[12]; 70 g/ha
  POLCO Ob: 20%
[13]; 35 g/ha
  STEME Ob: 10%
[13]; 70 g/ha
  STEME Ob: 10%
[3]; 35 g/ha
  VERPE Ob: 15%
[3]; 70 g/ha
  VERPE Ob: 23%
[4]; 35 g/ha
  VIOTR Ob: 15%
[4]; 70 g/ha
  VIOTR Ob: 23%

## C[N+](C)(C)CCCl [Chlormequat]
[8]; 155 g/ha alone
  GERDI Ob: 0%
[7]; 155 g/ha alone
  BRSNI Ob: 0%
[2]; 155 g/ha alone
  KCHSC Ob: 0%
[12]; 155 g/ha alone
  POLCO Ob: 10%
[13]; 155 g/ha alone
  STEME Ob: 0%
[5]; 155 g/ha alone
  MATCH Ob: 0%

## CCCN(CCC)C(=O)SCc1ccccc1 [Prosulfocarb]
[1]; 500 g/ha alone
  SASKR Ob: 0%
[13]; Stellaria media, post-emergence, 500 g/ha alone, read-out: STEME Ob
  pest or weed control at 500 g/ha: 0%
[5]; Matricaria, post-emergence, 500 g/ha alone, read-out: MATCH Ob
  pest or weed control at 500 g/ha: 0%
